Reference: patent publication US11992536B2, “Dual-targeting compound and preparation method and application thereof” (YANTAI LANNACHENG BIOTECHNOLOGY CO., LTD., priority 2022, dated 2024)

Assays:
FAP = target: T1, FAP (Homo sapiens, UniProt Q12884); experiment: Cell binding experiment in HT1080-FAP tumor cells (FIG. 11B); settings: cell experiment of HT1080-FAP
T1 construct: expressed in transfected cells; host or cells: HT1080-FAP tumor cells
T1 sequence (Q12884 1-760): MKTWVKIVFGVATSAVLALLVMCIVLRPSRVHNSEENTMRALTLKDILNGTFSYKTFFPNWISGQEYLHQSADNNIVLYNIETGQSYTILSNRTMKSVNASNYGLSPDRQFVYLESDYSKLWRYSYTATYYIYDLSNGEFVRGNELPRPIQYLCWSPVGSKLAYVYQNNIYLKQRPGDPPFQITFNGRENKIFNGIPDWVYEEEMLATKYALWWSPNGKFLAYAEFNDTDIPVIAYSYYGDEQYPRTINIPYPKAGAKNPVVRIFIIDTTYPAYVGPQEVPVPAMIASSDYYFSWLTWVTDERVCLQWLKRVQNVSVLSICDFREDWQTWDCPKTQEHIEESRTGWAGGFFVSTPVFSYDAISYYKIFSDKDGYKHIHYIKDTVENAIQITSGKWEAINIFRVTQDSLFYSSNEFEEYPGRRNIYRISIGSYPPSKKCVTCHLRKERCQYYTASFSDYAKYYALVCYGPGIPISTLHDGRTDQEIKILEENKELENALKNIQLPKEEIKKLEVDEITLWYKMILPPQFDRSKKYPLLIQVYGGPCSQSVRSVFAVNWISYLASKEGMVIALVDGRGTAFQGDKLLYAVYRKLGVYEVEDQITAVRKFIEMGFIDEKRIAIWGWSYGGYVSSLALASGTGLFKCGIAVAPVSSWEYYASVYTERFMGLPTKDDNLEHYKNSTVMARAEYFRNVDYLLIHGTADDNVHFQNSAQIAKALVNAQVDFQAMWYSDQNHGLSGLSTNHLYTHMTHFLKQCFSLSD

HT1080-FAP tumor cells = experiment: Cell uptake and blocking experiment in HT1080-FAP tumor cells; assay type: cell-based; settings: blocking experiment

N#C[C@@H]1CCCN1C(=O)CNC(=O)c1ccnc2ccc(OCCCN3CCN(C(=O)CCOCCOCCNC(=O)[C@H](CCC(=O)NCCOCCOCCC(=O)NCCCC[C@@H]4NC(=O)[C@@H](Cc5ccccc5)NC(=O)[C@H](CC(=O)O)NC(=O)CNC(=O)[C@H](CCCNC(=N)N)NC4=O)NC(=O)CN4CCN(CC(=O)O)CCN(CC(=O)O)CC4)CC3)cc12 [68Ga-FAPI-RGD, metal not drawn]
IC50 (FAP): 11.2 nM

N#C[C@@H]1CCCN1C(=O)CNC(=O)c1ccnc2ccc(OCCCN3CCN(C(=O)CN4CCN(CC(=O)O)CCN(CC(=O)O)CCN(CC(=O)O)CC4)CC3)cc12 [FAPI-02]
blocking of the cell uptake of 68Ga-FAPI-RGD (HT1080-FAP tumor cells): partially inhibited

C(RGDfK)
blocking of the cell uptake of 68Ga-FAPI-RGD (HT1080-FAP tumor cells): partially inhibited
